Values quoted from earlier work as cited in patent US9192596B2, “Self-emulsifying pharmaceutical compositions of rhein or diacerein” (WOCKHARDT RESEARCH CENTRE, priority 2007, dated 2015).
Structures can show the parent of a compound that is named as a salt.

Experiments:
[1] = not given; remark: listed apart in the source
[2] = inherent pharmacokinetic property; rhein-glucuronide converted to rhein-9-anthrone in colon

pKa | solubility ([1]; water, alcohols, acetone, dichloromethane and chloroform) | soft stool effect expected due to enterohepatic circulation [2] | solubility in water ([1]; EP 243,968) | Structure (SMILES) | stability (acidic and alkaline conditions)
4.5 | practically insoluble | 30-40% | – | CC(=O)Oc1cccc2c1C(=O)c1c(OC(C)=O)cc(C(=O)O)cc1C2=O [diacerein, 4,5-bis(acetyloxy) 9,10-dihydro-4,5-dihydroxy-9,10-dioxo-2-anthracenecarboxylic acid] | instability under acidic and alkaline conditions
– | – | – | water-soluble | CC(=O)Oc1cccc2c1C(=O)c1c(OC(C)=O)cc(C(=O)O)cc1C2=O [potassium salt of diacerein] | –
